Laboratory results reported in US9561231B2 (AbbVie Inc., priority 2012, dated 2017).
pEC50, pKi: −log10 of the molar value.

Experiments:
[1] = system: SKM1; experiment: Proliferation panel assay: SKM1; type: cell-based; conditions: Homo sapiens, SKM-1, 120 h; SKM1 (AML); 5 days, Cell Titer Glo; read-out: Cellular Proliferation EC50
[2] = system: H1975; experiment: Proliferation panel assay: H1975; type: cell-based; conditions: Homo sapiens, NCI-H1975, 120 h; H1975 (NSCLC); 5 days, Cell Titer Glo; read-out: Cellular Proliferation EC50
[3] = system: 786-0; experiment: Proliferation panel assay: 786-0; type: cell-based; conditions: Homo sapiens, 120 h; 786-0 (RCC); 5 days, Cell Titer Glo; read-out: Cellular Proliferation EC50
[4] = system: DLD-1; experiment: Proliferation panel assay: DLD-1; type: cell-based; conditions: Homo sapiens, 120 h; DLD-1 (Colon); 5 days, Cell Titer Glo; read-out: Cellular Proliferation EC50
[5] = system: NCI-H929; experiment: Proliferation panel assay: NCI-H929; type: cell-based; conditions: Homo sapiens, 120 h; NCI-H929 (Multiple Myeloma); 5 days, Cell Titer Glo; read-out: Cellular Proliferation EC50
[6] = system: Raji; experiment: Proliferation panel assay: Raji; type: cell-based; conditions: Homo sapiens, 120 h; Raji (Burkitt lymphoma); 5 days, Cell Titer Glo; read-out: Cellular Proliferation EC50
[7] = system: Ramos; experiment: Proliferation panel assay: Ramos; type: cell-based; conditions: Homo sapiens, 120 h; Ramos (NHL); 5 days, Cell Titer Glo; read-out: Cellular Proliferation EC50
[8] = system: OPM2; experiment: Proliferation panel assay: OPM2; type: cell-based; conditions: Homo sapiens, OPM-2, 120 h; OPM2 (Multiple Myeloma); 5 days, Cell Titer Glo; read-out: Cellular Proliferation EC50
[9] = target: T1, first (BD1: amino acids K57-E168) bromodomain of BRD4 (Homo sapiens, UniProt O60885); experiment: TR-FRET bromodomain binding assay, BRD4 BD1; conditions: TR-FRET assay protocol (A-G, compound concentration range); Ki calculated from IC50, probe Kd and probe concentration; read-out: TR-FRET Binding Ki: BRD4 (BDI_K57-E168)
T1 construct: His-tagged first (BD1: amino acids K57-E168)
Method in brief: (§1)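 TR-FRET probe competition, His-tagged bromodomain, Alexa647-labeled BET-inhibitor tracer. Ki from IC50 via probe Kd.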

[10] = system: MDAMB231; experiment: Proliferation panel assay: MDAMB231; type: cell-based; conditions: Homo sapiens, MDA-MB-231, 120 h; MDAMB231 (Breast); 5 days, Cell Titer Glo; read-out: Cellular Proliferation EC50
[11] = system: A-375; experiment: Proliferation panel assay: A-375; type: cell-based; conditions: Homo sapiens, 120 h; A-375 (Melanoma); 5 days, Cell Titer Glo; read-out: Cellular Proliferation EC50
[12] = system: GEO; experiment: Proliferation panel assay: GEO; type: cell-based; conditions: 120 h; GEO (Colon); 5 days, Cell Titer Glo; read-out: Cellular Proliferation EC50
[13] = system: Ly18; experiment: Proliferation panel assay: Ly18; type: cell-based; conditions: 120 h; Ly18 (NHL); 5 days, Cell Titer Glo; read-out: Cellular Proliferation EC50
[14] = target: T2, second (BD2: amino acids E352-E168) bromodomain of BRD4 (Homo sapiens, UniProt O60885); experiment: TR-FRET bromodomain binding assay, BRD4 BD2; conditions: TR-FRET assay protocol (A-G, compound concentration range); Ki calculated from IC50, probe Kd and probe concentration; read-out: TR-FRET Binding Ki: BRD4 (BDII_E352-M457)
T2 construct: protocol
Method in brief: as §1

[15] = system: FaDu; experiment: Proliferation panel assay: FaDu; type: cell-based; conditions: Homo sapiens, 120 h; FaDu (Head & Neck); 5 days, Cell Titer Glo; read-out: Cellular Proliferation EC50
[16] = system: SK-LMS-1; experiment: Proliferation panel assay: SK-LMS-1; type: cell-based; conditions: Homo sapiens, 120 h; SK-LMS-1 (Sarcoma); 5 days, Cell Titer Glo; read-out: Cellular Proliferation EC50
[17] = system: BxPC3FP5; experiment: Proliferation panel assay: BxPC3FP5; type: cell-based; conditions: 120 h; BxPC3FP5 (Pancreas); 5 days, Cell Titer Glo; read-out: Cellular Proliferation EC50
[18] = system: D54MG; experiment: Proliferation panel assay: D54MG; type: cell-based; conditions: 120 h; D54MG (Glioblastoma); 5 days, Cell Titer Glo; read-out: Cellular Proliferation EC50
[19] = system: H460; experiment: Proliferation panel assay: H460; type: cell-based; conditions: Homo sapiens, NCI-H460, 120 h; H460 (NSCLC); 5 days, Cell Titer Glo; read-out: Cellular Proliferation EC50
[20] = system: HPAC; experiment: Proliferation panel assay: HPAC; type: cell-based; conditions: Homo sapiens, 120 h; HPAC (Pancreas); 5 days, Cell Titer Glo; read-out: Cellular Proliferation EC50
[21] = system: EJ-1; experiment: Proliferation panel assay: EJ-1; type: cell-based; conditions: EJ1, 120 h; EJ-1 (Bladder); 5 days, Cell Titer Glo; read-out: Cellular Proliferation EC50

pEC50 [1] | pEC50 [2] | pEC50 [3] | pEC50 [4] | pEC50 [5] | pEC50 [6] | pEC50 [7] | pKi [9] | pEC50 [10] | pEC50 [11] | pKi [14] | pEC50 [16] | pEC50 [17] | pEC50 [19] | SMILES | pEC50 [8] | pEC50 [12] | pEC50 [13] | pEC50 [15] | pEC50 [18] | pEC50 [20] | also measured
6.94 | 6.42 | 6.56 | 6.07 | 6.96 | 6.89 | 6.43 | 7.32 | 6.14 | 6.37 | 6.95 | 6.35 | 6.64 | 6.96 | Cn1cc(-c2cc(NS(C)(=O)=O)ccc2Oc2ccccc2)ccc1=O [Example 224, N-[3-(1-methyl-6-oxo-1,6-dihydropyridin-3-yl)-4-phenoxyphenyl]methanesulfonamide] | 7.30 | 6.26 | 6.28 | 6.55 | 6.37 | 6.42 | pEC50 [21]: 5.80
6.87 | 6.33 | 6.60 | 6.21 | 7.01 | 6.87 | 6.41 | 7.59 | 6.34 | 6.30 | 7.18 | 6.46 | 6.64 | 6.51 | Cc1cc(-c2cc(NS(C)(=O)=O)ccc2Oc2ccccc2)c[nH]c1=O [Example 261, N-[3-(5-methyl-6-oxo-1,6-dihydropyridin-3-yl)-4-phenoxyphenyl]methanesulfonamide] | 7.26 | 6.17 | 6.29 | 6.57 | 6.47 | 6.30 | pEC50 [21]: 5.94
